Paper PMC7806714, “Statins for the prevention of proliferative vitreoretinopathy: cellular responses in cultured cells and clinical statin concentrations in the vitreous” (Scientific Reports, 2021)

Tested on: ARPE-19 cells
Assay: LDH release assay (cell membrane integrity)
Assay type: cell-based, human
Description: Cell viability was assessed by determining the amount of LDH enzyme from culture media using a commercial kit (Promega Corporation, USA) according to the manufacturer’s protocol. This assay provides information about the integrity of the plasma membranes of the cells (high LDH levels meaning cell damage). In addition, the cell viability was examined with MTT assay, as described previously. In viable cells, the mitochondrial succinate dehydrogenase enzyme can metabolize the MTT dye into formazan that absorbs light at the 550 nm wavelength.

CC(C)c1nc(N(C)S(C)(=O)=O)nc(-c2ccc(F)cc2)c1/C=C/[C@@H](O)C[C@@H](O)CC(=O)O [Rosuvastatin]
LDH levels / cell membrane integrity (24 h exposure, with LPS, dissolved in DMSO): more damage to the cell membrane
LDH levels / cell membrane integrity (24 h exposure, without LPS, dissolved in DMSO): protected the integrity of the cell membrane
LDH levels / cell membrane integrity (48 h exposure, with LPS, dissolved in DMSO): protect cells from LPS-induced cell membrane rupturing
LDH levels / cell membrane integrity (48 h exposure, dissolved in DMSO): acute toxic effects on the cell membrane
LDH levels / cell membrane integrity (dissolved in water, 48 h, with LPS): interfered with the cell membrane integrity
LDH levels (dissolved in water, within 24 h, irrespective of LPS): did not cause any changes in the LDH levels
